Measurements taken from patent publication US9670214B2, “Small molecule myristate inhibitors of Bcr-abl and methods of use” (DANA-FARBER CANCER INSTITUTE, INC., priority 2007, dated 2017).

Tests used:
[1] = test system: Ba/F3 cells (IL-3 dependent murine pro-B cell line); assay: Proliferation assay (MTT), parental Ba/F3 cells; format: cell-based; conditions: Mus musculus, 48 h, drug concentrations 0.005-10 μM, read-out: BaF3
Method: Interleukin-3 (IL-3) dependent murine pro-B cell line, Ba/F3, and murine myeloid precursor cell line, 32D, were maintained in RPMI-1640 medium supplemented with L-Glutamine, 10% FBS and 10 U/ml recombinant murine IL-3 (Roche). Mo7e human megakarioblastic cell line was grown in RPMI-1640 medium supplemented with L-Glutamine, 20% FBS and 5 ng/ml recombinant human granulocyte macrophage cell stimulating factor (GM-CSF) (R&D Systems) or 200 ng/ml stem cell factor (SCF) (Biosource).
(§1) Cells (0.3-0.6×10^6/ml) were plated in duplicate or triplicate in 96-well plates containing increasing drug concentrations (0.005-10 μM). After incubation at 37° C. in 5% CO2 for 48 h, the effect of the compounds on cell viability was determined by MTT (Promega) colorimetric dye reduction method. Inhibition of cell proliferation was calculated as a percentage of growth of DMSO treated cells, and IC50 values were determined with Microsoft Excel XLfit3.

[2] = molecular target: Bcr-abl (Ba/F3.p210 cells) (Homo sapiens, UniProt P00519); assay: Proliferation assay (MTT), wild type Bcr-abl expressing Ba/F3 cells; format: cell-based, murine; conditions: 48 h, drug concentrations 0.005-10 μM
Description: (§2) Wild type Bcr-abl expressing 32D (32D.p210) and Ba/F3 (Ba/F3.p210) cells, and mutant Bcr-abl expressing cell lines Ba/F3.p210^G250E, Ba/F3.p210^E255V, Ba/F3.p210^T315I, Ba/F3.p210^F317L and Ba/F3.p210^M351T, as well as Ba/F3 cells transformed with Flt-3-ITD kinase. Additional assays included Ba/F3 cells expressing the fusion protein kinases TEL-PDGFRβ, TEL-JAK1, NPM-ALK, TEL-cKit, Tel-Bmx, Tel-FGR3, Tel-Lck and Ba/F3.TPR-met cells. All the above cell lines were maintained in RPMI-1640 medium with L-Glutamine, 10% FBS and 1 mg/ml geneticin (Gibco).
as §1

[3] = molecular target: Bcr-abl T315I (Ba/F3.p210^T315I cells) (Homo sapiens, UniProt P00519, T315I, cells depend on it); assay: Proliferation assay (MTT), T315I mutant Bcr-abl expressing Ba/F3 cells; format: cell-based, murine; conditions: 48 h, drug concentrations 0.005-10 μM
Description: as §2, §1

Compound | IC50 [1] | IC50 [2] | IC50 [3]
Cn1ncc2c(Nc3ccc(OC(F)(F)F)cc3)ncnc21 | > 10 µM | > 10 µM | –
FC(F)(F)Oc1ccc(Nc2ncnc3[nH]ccc23)cc1 | > 10 µM | > 10 µM | > 10 µM
Cn1ccc2c(Nc3ccc(OC(F)(F)F)cc3)ncnc21 | > 10 µM | 6.89 µM | > 10 µM
FC(F)(F)Oc1ccc(Nc2ncnc3c2ccn3CCN2CCOCC2)cc1 | > 10 µM | 0.38 µM | 4.27 µM
NC(=O)CCn1ccc2c(Nc3ccc(OC(F)(F)F)cc3)ncnc21 | > 10 µM | 0.49 µM | 6.42 µM
CCNC(=O)CCn1ccc2c(Nc3ccc(OC(F)(F)F)cc3)ncnc21 | > 10 µM | 2.42 µM | 9.29 µM
O=C(CCn1ccc2c(Nc3ccc(OC(F)(F)F)cc3)ncnc21)NCCN1CCOCC1 | > 10 µM | 1.06 µM | 3.14 µM
CC(C)C(CCO)NC(=O)CCn1ccc2c(Nc3ccc(OC(F)(F)F)cc3)ncnc21 (centres unmarked) | > 10 µM | 0.86 µM | 2.07 µM
CCOC(=O)c1cc2c(Nc3ccc(OC(F)(F)F)cc3)ncnc2n1C | > 10 µM | 1.5 µM | > 10 µM
Cn1c(C(=O)N2CCC(C(N)=O)CC2)cc2c(Nc3ccc(OC(F)(F)F)cc3)ncnc21 | > 10 µM | 0.82 µM | > 10 µM
Cn1c(C(=O)N2CCCC(C(N)=O)C2)cc2c(Nc3ccc(OC(F)(F)F)cc3)ncnc21 (centres unmarked) | > 10 µM | 1.98 µM | > 10 µM
Cn1c(CO)cc2c(Nc3ccc(OC(F)(F)F)cc3)ncnc21 | > 10 µM | 0.245 µM | > 10 µM
Cn1c(C(N)=O)cc2c(Nc3ccc(OC(F)(F)F)cc3)ncnc21 | > 10 µM | 0.62 µM | > 10 µM
CCN1CCCC1NC(=O)c1cc2c(Nc3ccc(OC(F)(F)F)cc3)ncnc2n1C (centres unmarked) | 5.12 µM | 2.95 µM | 8.47 µM
Cn1c(C(=O)NC(=N)N)cc2c(Nc3ccc(OC(F)(F)F)cc3)ncnc21 | > 10 µM | > 10 µM | > 10 µM
CCN(CC)CCCC(C)NC(=O)c1cc2c(Nc3ccc(OC(F)(F)F)cc3)ncnc2n1C (centres unmarked) | 4.12 µM | 1.18 µM | 4 µM

Compound | IC50 [1] | IC50 [2] | IC50 [3]
CCN(CC)C(=O)c1ccc2c(Nc3ccc(OC(F)(F)F)cc3)ncnc2c1 | > 10 µM | 0.742 µM | 3.17 µM
O=C(c1ccoc1)N1CCN(C(=O)c2ccc3c(Nc4ccc(OC(F)(F)F)cc4)ncnc3c2)CC1 | > 10 µM | 2.04 µM | 3.9 µM
O=C(Nc1cccc(C(F)(F)F)c1)c1ccc2c(Nc3ccc(OC(F)(F)F)cc3)ncnc2c1 | 4.5 µM | 1.28 µM | 1.56 µM
COCCCNC(=O)c1ccc2c(Nc3ccc(OC(F)(F)F)cc3)ncnc2c1 | > 10 µM | 4.09 µM | > 10 µM
CCNNC(=O)c1ccc2c(Nc3ccc(OC(F)(F)F)cc3)ncnc2c1 | 6.51 µM | 1.88 µM | 6.3 µM
COC1CCN(C(=O)c2ccc3c(Nc4ccc(OC(F)(F)F)cc4)ncnc3c2)CC1 | > 10 µM | 0.639 µM | 0.895 µM
O=C(c1ccc2c(Nc3ccc(OC(F)(F)F)cc3)ncnc2c1)N1CCC(O)C1 (centres unmarked) | > 10 µM | 1.17 µM | > 10 µM
O=C(c1ccc2c(Nc3ccc(OC(F)(F)F)cc3)ncnc2c1)N1CCCC1CO (centres unmarked) | > 10 µM | 1.65 µM | > 10 µM
CN(CCO)C(=O)c1ccc2c(Nc3ccc(OC(F)(F)F)cc3)ncnc2c1 | > 10 µM | 2.66 µM | > 10 µM
CN1CCC(N(C)C(=O)c2ccc3c(Nc4ccc(OC(F)(F)F)cc4)ncnc3c2)CC1 | 5.99 µM | 0.689 µM | 5 µM
Cc1ccc(S(=O)(=O)NC(=O)c2ccc3c(Nc4ccc(OC(F)(F)F)cc4)ncnc3c2)cc1 | > 10 µM | > 10 µM | > 10 µM
CC(C)(C)S(=O)(=O)NC(=O)c1ccc2c(Nc3ccc(OC(F)(F)F)cc3)ncnc2c1 | > 10 µM | > 10 µM | > 10 µM
NS(=O)(=O)c1ccc(-c2cc(Nc3ccc(OC(F)(F)F)cc3)ncn2)cc1 | > 10 µM | – | 1.05 µM
CNS(=O)(=O)c1ccc(-c2ncnc(Nc3ccc(OC(F)(F)F)cc3)c2C)cc1 | 2.5 µM | – | 2.13 µM
CS(=O)(=O)c1ccc(-c2cc(Nc3ccc(OC(F)(F)F)cc3)ncn2)cc1 | > 10 µM | – | 6.1 µM
